Measurements as given in patent US12691114B2, “Compositions for inhibition of herpesviruses” (The Medical College of Wisconsin, Inc., priority 2020, dated 2026).
Where two headings read alike, the source gives them in different places.

Key:
[1] = molecular target: HCMV Towne (pp28-luciferase); assay: pp28-luciferase HCMV Towne assay in HFFs, luciferase activity at 72 hpi; type: cell-based, human cytomegalovirus
Description: (§1) A GCV-resistant HCMV pp28-luciferase that contains a C607Y mutation in UL97 was reported^37. The HCMV TB40 strain was obtained from ATCC (VR-1578). Clinical isolates of Human Herpesvirus 1 and 2 (HSV1, HSV2) were collected from the Johns Hopkins Microbiology laboratory without identifiers that could link them to a specific patient. Mouse CMV (MCMV) Smith strain (ATCC VR-1399) was used for infection of MEFs.
(§2) Luciferase activity: Cell lysates were collected at 72 hpi and luciferase activity was determined using the Glomax-Multi+Detection System (Promega, Madison, WI) as described previously^20.
(§3) HCMV inhibition was measured by luciferase activity of pp28-recombinant Towne and pp28 GCV-resistant Towne strains of HCMV (72 hpi) and by plaque reduction using HCMV Towne or TB40 (10 days). Viral protein expression was measured by Western blot.

HSV1 clinical isolate = assay: Plaque reduction assay, HSV1 in Vero cells; type: cell-based, Human Herpesvirus 1; settings: plaque reduction
Description: as §1, with “Viruses and antiviral assays: A recombinant pp28-luciferase Towne HCMV strain expressing luciferase under the control of the UL99 (pp28) late promoter was reported to provide a highly-sensitive and reproducible reporter for drug screening^20. A GCV-resistant” for “A GCV-resistant”
(§4) Plaque reduction assay: HFFs were seeded into 12-well plates (2×10^5 cells/well) and infected with HCMV TB40 at approximately 100 plaques/well. After 90 min, media were aspirated, and DMEM containing 0.5% carboxymethyl-cellulose (CMC), 4% fetal bovine serum (FBS), and drugs were added into duplicate wells. Following incubation at 37° C. for 10-12 days the overlay was removed, and plaques were counted after crystal violet staining. For HSV1 and HSV2 replication in Vero cells, the adsorption time was 60 min and plaques were counted after 36 h. Plaque assays in MEFs were completed after 3 days.
(§5) Inhibition of other herpesviruses: Inhibition of herpes simplex 1 and 2 (HSV1, HSV2), Epstein Barr virus (EBV) and mouse CMV (MCMV) was tested with the five compounds. Plaque reductions assays were used for HSV1, HSV2 and MCMV. Inhibition of lytic EBV replication was measured by real-time PCR in AKATA cells following IgG induction. Only MLS8554 was active against HSV1, HSV2 and MCMV (Table 2).

HCMV TB40 = assay: Plaque reduction assay, HCMV TB40 in HFFs; type: cell-based, human cytomegalovirus; settings: 10 days
Procedure: as §4
Viral protein expression was measured by Western blot.

non-infected HFFs = assay: in vitro
Procedure: (§6) Cytotoxicity assay: MTT assay was performed as described by manufacturer's instructions (Sigma-Aldrich). Non-infected cells were treated with compounds for 72 h or 10 days (same time points of the antiviral assay), and 20 μL/well of MTT [3-(4, 5-Dimethyl-2-thiazolyl)-2, 5-diphenyl-2H-tetrazolium bromide], 5 mg/mL in phosphate buffered saline (PBS)] was added to each well. After shaking at 150 rpm for 5 min the plates were incubated at 37° C. for 2-3 h. Conversion of yellow solution to dark blue formazan by mitochondrial dehydrogenases of living cells was quantified by measuring absorbance at 560 nm.
as §3

Epstein Barr Virus (EBV) = assay: Inhibition of lytic EBV replication in Akata cells, real-time PCR of BALF5; type: cell-based; settings: real-time PCR at 48 hours, NA = Not active
Procedure: Inhibition of lytic Epstein Barr Virus (EBV) replication: Akata cells (0.5×10^6/well of 24-well plate) latently infected with EBV were induced with 100 μg/ml of goat antihuman IgG (Sigma). Compounds and GCV control were added to triplicate wells immediately after the addition of human IgG. Cells were collected 48 hours after lytic induction for DNA quantification. Cellular DNA was purified using Wizard SV Genomic Kit (Promega, Madison, WI). The effect of the compounds on lytic induction of EBV was analyzed by real-time PCR of the EBV DNA polymerase gene, BALF5^38.
as §5

[2] = tested on: GCV-resistant HCMV Towne (C607Y mutation in UL97); assay: microbe, parasite or virus in culture; type: cell-based, human cytomegalovirus
Description: as §1, §2, §3

HCMV Towne = assay: Add-on and removal assays, luciferase at 72 hpi; type: cell-based, human cytomegalovirus; settings: for stage of maximal activity during HCMV replication, in words: add-on and removal assays; for add-on assay result, in words: compound added at times after infection; for add-on assay result, in words / removal assay result, in words: luciferase 72 hpi; for removal assay result, in words: compound removed at times after infection
Procedure: Add-on and removal assays: These assays were performed to identify at which stage during HCMV replication the compounds had maximal activity. In the add-on group, compounds were added to infected HFFs at 0, 6, 24, and 48 hpi, and luciferase activity was measured at 72 hpi. In the removal group, compounds were added immediately after virus infection and were subsequently removed after 0, 6, 24, and 48 h; luciferase was measured at 72 hpi.
Timing of HCMV inhibition: Add-on and removal assays were performed. Compounds were added or removed at 0, 6, 12, 24, 36 and 48 hpi, and luciferase activity was measured at 72 hpi.

in vitro = settings: human
Procedure: as §6, §3

[3] = pp28-luciferase Towne, HFFs, 72 hpi, read-out: EC50—Towne
[4] = pp28 GCV-resistant Towne, luciferase, 72 hpi, read-out: EC50—GCVR Towne
[5] = Human betaherpesvirus 5, read-out: EC50—Towne (μM)

Compound | EC50 [1, 3] [µM] | activity against HSV1, in words (HSV1 clinical isolate) | EC50 (HCMV TB40) [nM] | CC50 (non-infected HFFs) [nM] | EC50 (Epstein Barr Virus (EBV); IgG induction) [nM] | EC50 [2, 4] [µM] | stage of maximal activity during HCMV replication, in words (HCMV Towne) | add-on assay result, in words (HCMV Towne) | removal assay result, in words (HCMV Towne) | anti-HCMV activity, in words ([1]; all the HCMV strains used) | EC50 (HSV1 clinical isolate; Vero cells, NA = Not active, read-out: EC50—HSV1-C1) [nM] | activity against GCV-resistant HCMV, in words [2] | EC50 [1, 5] [µM] | inhibition of luciferase activity, in words ([1]; compound after infection, MOI of 1 PFU/cell, 72 hpi) | EC50 (HCMV TB40; Human betaherpesvirus 5, 240 h) [nM] | CC50 (in vitro) [nM] | EC50 (Epstein Barr Virus (EBV); human gammaherpesvirus 4, IgG induction) [nM] | EC50 ([2]; Human betaherpesvirus 5, read-out: EC50—GCVR Towne (μM)) [µM]
Nc1c(S(=O)(=O)c2cccs2)c2nc3ccccc3nc2n1Cc1ccccc1 [MLS8091] | 0.39 | no activity | 330 | > 250000 | > 10000 | 0.26 ± 0.02 | early-late stage | overlapped with that of GCV | showed earlier effects |  |  |  |  |  |  |  |  | 
CCc1ccc(NC(=O)[C@H](Cc2c[nH]c3ccccc23)NC(=O)[C@@H]2Cc3ccccc3CN2)cc1 [MLS8554] | 0.64 ± 0.1 | active | 340 | 86000 |  | 0.17 | immediate early-early | activity was significantly reduced | near complete | active | 1780 ± 200 | active |  |  |  |  |  | 
CC(C)NC(=O)C1CCN(C(=O)c2cc3sccc3n2Cc2ccc(Cl)cc2)CC1 [NCGC2955, 1-(4-(4-chlorobenzyl)-4H-thieno[3,2-b]pyrrole-5-carbonyl)-N-isopropylpiperidine-4-carboxamide] |  |  |  |  |  |  | early-late stage | overlapped with GCV | longer activity than GCV |  |  | inhibited | 4.61 ± 1.4 | did not show a full dose response | 1180 ± 200 | > 200000 |  | 
CCN1CCN(CCCNC(=O)c2ccc3c(c2)sc2nc(-c4ccc(OC)cc4)cn23)CC1 [NFU1827, N-[3-(4-ethylpiperazin-1-yl)propyl]-4-(4-methoxyphenyl)-7-thia-2,5-diazatricyclo [6.4.0.02,6] dodeca-1(8),3,5,9,11-pentaene-10-carboxamide] |  | no activity |  |  |  |  | immediate early-early | lost its ability to inhibit HCMV | significant HCMV suppression |  |  |  | 0.85 ± 0.1 |  | 1210 ± 100 | 70900 | 1920 ± 100 | 0.84 ± 0.1
